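Cells were grown in 96-well plates and exposed to each compound for 48 hours at five concentrations; endpoints were interpolated linearly between bracketing concentrations, or set to the highest concentration if not reached. At the GI50, growth is halved. TGI: total growth inhibition.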

Among the test systems are OVCAR-8 ovarian; SK-MEL-28 melanoma; OVCAR-3 ovarian; SF-268 CNS; UACC-62 melanoma; EKVX NSCLC; MOLT-4 leukemia; SF-539 CNS; RXF 393 renal; SK-MEL-5 melanoma.
Test in all cases: inhibition of tumour cell growth, NCI panel, 48 h

Consider `O=C(/C=C/c1ccc(O)cc1)c1cc(Cl)ccc1O`, for which the TGI in the assay on OVCAR-8 ovarian, with SK-MEL-28 melanoma, in the assay on OVCAR-3 ovarian, with SF-268 CNS, with UACC-62 melanoma and in the assay on EKVX NSCLC was greater than 100 µM throughout. Also, the TGI with MOLT-4 leukemia was 55.8 µM; in the assay with SF-539 CNS, 44.9 µM; with RXF 393 renal, 88.9 µM; with SK-MEL-5 melanoma, greater than 100 µM.
For the compound `Oc1cccc(-c2nc(-c3ccccc3)[nH]c2-c2ccncc2)c1`, the GI50 is greater than 25 µM with OVCAR-8 ovarian; 2030 nM in the assay on SK-MEL-28 melanoma; 18600 nM with OVCAR-3 ovarian; 24300 nM in the assay on SF-268 CNS; 1590 nM with UACC-62 melanoma; greater than 25 µM in the assay on EKVX NSCLC. For the same compound, the GI50 with MOLT-4 leukemia was 24.9 µM; with SF-539 CNS, 17600 nM; with RXF 393 renal, 5000 nM; with SK-MEL-5 melanoma, 3590 nM. Also, the TGI with OVCAR-8 ovarian was greater than 25 µM; in the assay on SK-MEL-28 melanoma it was greater than 18.5 µM; in the assay with OVCAR-3 ovarian, greater than 25 µM; in the assay with SF-268 CNS, greater than 25 µM; with UACC-62 melanoma, greater than 25 µM; in the assay on EKVX NSCLC, greater than 25 µM. The TGI is greater than 25 µM in the assay with MOLT-4 leukemia, greater than 25 µM in the assay with SF-539 CNS, 14.7 µM with RXF 393 renal and 14.7 µM in the assay with SK-MEL-5 melanoma.
On to `c1ccc2c(c1)N=C(c1ccc3ccccc3c1)CC(c1cccc3ccccc13)S2` (centres undefined), for which the TGI in the assay on OVCAR-8 ovarian, in the assay with SK-MEL-28 melanoma, with OVCAR-3 ovarian, in the assay with SF-268 CNS, in the assay with UACC-62 melanoma and with EKVX NSCLC was greater than 100 µM throughout. In addition, the TGI is 44.2 µM with MOLT-4 leukemia, greater than 100 µM with SF-539 CNS, greater than 100 µM with RXF 393 renal and greater than 100 µM with SK-MEL-5 melanoma.
For `CCN1C(=O)N(CC)C2C1NN=c1s/c(=C\c3ccc(OC)cc3)c(=O)n12` (centres undefined), the GI50 is 0.369 µM in the assay with OVCAR-8 ovarian; 953 nM in the assay with SK-MEL-28 melanoma; 114 nM in the assay with OVCAR-3 ovarian; 577 nM with SF-268 CNS; 70.4 nM with UACC-62 melanoma; 0.44 µM in the assay with EKVX NSCLC. In addition, the GI50 in the assay with MOLT-4 leukemia was 0.378 µM; with SF-539 CNS, 103 nM; in the assay on RXF 393 renal it was 78.9 nM; in the assay with SK-MEL-5 melanoma, 192 nM. The TGI with SK-MEL-28 melanoma is greater than 100 µM; with OVCAR-3 ovarian, 0.526 µM; in the assay with SF-268 CNS, greater than 80.1 µM; in the assay with UACC-62 melanoma, greater than 100 µM; in the assay on EKVX NSCLC, greater than 100 µM; with MOLT-4 leukemia, greater than 100 µM. The TGI with SF-539 CNS was 0.545 µM; in the assay with RXF 393 renal, 47 µM; in the assay on SK-MEL-5 melanoma, 1.64 µM.
Take `CNCCN(C)Cc1cn[nH]c1-c1ccc(OC2CC(OCCC3CCOCC3)C2)cc1` (centres undefined): the GI50 with OVCAR-8 ovarian was greater than 100 µM; in the assay on SK-MEL-28 melanoma, greater than 67900 nM; in the assay on OVCAR-3 ovarian it was greater than 80000 nM; in the assay on SF-268 CNS it was greater than 100000 nM; with UACC-62 melanoma, 39100 nM; in the assay on EKVX NSCLC, greater than 77.7 µM. Further, the GI50 is greater than 80.2 µM in the assay with MOLT-4 leukemia, greater than 100000 nM with SF-539 CNS, 48500 nM with RXF 393 renal and 34000 nM in the assay with SK-MEL-5 melanoma. The TGI in the assay on OVCAR-8 ovarian, with SK-MEL-28 melanoma, in the assay with OVCAR-3 ovarian, with SF-268 CNS, with UACC-62 melanoma and with EKVX NSCLC was greater than 100 µM throughout. The TGI in the assay with MOLT-4 leukemia, in the assay on SF-539 CNS, in the assay on RXF 393 renal and in the assay on SK-MEL-5 melanoma was greater than 100 µM throughout.
`CCOC(=O)c1cc(-c2ccccc2)[nH]c1N/N=C/c1c(Cl)cccc1Cl`: the GI50 in the assay with OVCAR-8 ovarian is 4.77 µM; with SK-MEL-28 melanoma, 3350 nM; in the assay on OVCAR-3 ovarian it was 248 nM; with SF-268 CNS, 1140 nM; in the assay with UACC-62 melanoma it was 2030 nM; with EKVX NSCLC it was 5.96 µM. The GI50 in the assay with MOLT-4 leukemia was 4.24 µM; with SF-539 CNS, 467 nM; with RXF 393 renal it was 470 nM; with SK-MEL-5 melanoma, 706 nM. In addition, the TGI in the assay on OVCAR-8 ovarian is greater than 100 µM; in the assay on SK-MEL-28 melanoma it was greater than 75 µM; in the assay on OVCAR-3 ovarian, 1.04 µM; with SF-268 CNS it was greater than 100 µM; with UACC-62 melanoma it was greater than 100 µM; in the assay on EKVX NSCLC it was greater than 100 µM. Moreover, the TGI in the assay on MOLT-4 leukemia worked out at 24.3 µM; with SF-539 CNS, 3.73 µM; in the assay on RXF 393 renal, 9.51 µM; with SK-MEL-5 melanoma it was 14.1 µM.
As to `Cn1cnc([N+](=O)[O-])c1Sc1nc2ccc([N+](=O)[O-])cc2[nH]1`, the TGI in the assay on OVCAR-8 ovarian was 39.2 µM; in the assay with SK-MEL-28 melanoma, 37.6 µM; with OVCAR-3 ovarian it was greater than 100 µM; in the assay on SF-268 CNS it was 53.1 µM; with UACC-62 melanoma, 28.2 µM; with EKVX NSCLC, 46.7 µM. Further, the TGI in the assay with MOLT-4 leukemia was determined as 47.7 µM; in the assay on SF-539 CNS it was 44 µM; in the assay with RXF 393 renal, 40.1 µM; in the assay on SK-MEL-5 melanoma it was 30.6 µM.

These data come from PubChem BioAssay (NCI).
